Measurements published in publication PMC11876601 (Molecular Systems Biology, 2025).
Each block holds one molecule with its values, some of them ahead of it.

Columns and labels:
STK3 ; Q13188;Q13188-2 = STK3 ; Q13188;Q13188-2 (Homo sapiens, UniProt Q13188); experiment: biochemical; design: species or system AsPC-1; Kinobeads competition pulldown in AsPC-1 lysate with LC-MS/MS label-free quantification; apparent Kd
Procedure: (§1) This was followed by incubation with Kinobeads ε (17.5 µl of settled beads) for 30 min at 4 °C to enrich kinases. […] Enriched proteins were reduced with 50 mM DTT in 8 M urea, 40 mM Tris-HCl, pH 7.4 for 30 min at room temperature, and alkylated with 55 mM chloroacetamide. After reducing the urea concentration to 1–2 M, proteins were digested with trypsin at 37 °C for 16 h. Subsequently, eluted peptides were desalted using SepPak tC18 µElution plates (Waters), freeze-dried by vacuum centrifugation, and stored at −20 °C. Proteins were filtered by potential contaminants, reversed hits and proteins identified only by site. Residual binding of proteins was calculated from LFQ intensities as the ratio between drug doses and vehicle. […] Only kinases quantified with at least 4 unique peptides in the vehicle experiment were considered. Potential targets were further curated through manual inspection of dose-dependent reduction in MS/MS and unique peptide counts.

PIK3C3 ; Q8NEB9 = PIK3C3 ; Q8NEB9 (Homo sapiens, UniProt Q8NEB9); experiment: biochemical; design: species or system AsPC-1; Kinobeads competition pulldown in AsPC-1 lysate with LC-MS/MS label-free quantification; apparent Kd
Procedure: as §1

MAP3K6 = tested on: MAP3K6; design: method as in Reinecke et al. (2023); settings: MAP3K6, 5 cell line mix lysate, Kinobeads ε, ref Reinecke et al. (2023), cited from earlier work
AZI2 = settings: AZI2, 5 cell line mix lysate, Kinobeads ε, ref Reinecke et al. (2023), cited from earlier work
BCR = settings: 5 cell line mix lysate, Kinobeads ε, ref Reinecke et al. (2023), cited from earlier work
EIF3J = settings: 5 cell line mix lysate, Kinobeads ε, ref Reinecke et al. (2023), cited from earlier work
FN3KRP ; Q9HA64 = FN3KRP ; Q9HA64 (Homo sapiens, UniProt Q9HA64); experiment: biochemical; design: species or system AsPC-1; Kinobeads competition pulldown in AsPC-1 lysate with LC-MS/MS label-free quantification; apparent Kd
Procedure: as §1

[1] = target: CLK1 ; P49759-3;P49759;P49759-2 (Homo sapiens, UniProt P49759); experiment: biochemical; design: species or system AsPC-1; Kinobeads competition pulldown in AsPC-1 lysate with LC-MS/MS label-free quantification; apparent Kd
Procedure: as §1

[2] = target: CDC42BPA ; Q5VT25-5;Q5VT25-4;Q5VT25;Q5VT25-2;Q5VT25-6;Q5VT25-3 (Homo sapiens, UniProt Q5VT25); experiment: biochemical; design: species or system AsPC-1; Kinobeads competition pulldown in AsPC-1 lysate with LC-MS/MS label-free quantification; apparent Kd
Procedure: as §1

CLK2 ; P49760-3;P49760 = CLK2 ; P49760-3;P49760 (Homo sapiens, UniProt P49760); experiment: biochemical; design: species or system AsPC-1; Kinobeads competition pulldown in AsPC-1 lysate with LC-MS/MS label-free quantification; apparent Kd
Procedure: as §1

[3] = target: ADCK1 ; Q86TW2;Q86TW2-2;Q86TW2-3 (Homo sapiens, UniProt Q86TW2); experiment: biochemical; design: species or system AsPC-1; Kinobeads competition pulldown in AsPC-1 lysate with LC-MS/MS label-free quantification; apparent Kd
Procedure: as §1

CSNK2A2 ; P19784 = CSNK2A2 ; P19784 (Homo sapiens, UniProt P19784); experiment: biochemical; design: species or system AsPC-1; Kinobeads competition pulldown in AsPC-1 lysate with LC-MS/MS label-free quantification; apparent Kd
Procedure: as §1

TP53RK ; Q96S44 = TP53RK ; Q96S44 (Homo sapiens, UniProt Q96S44); experiment: biochemical; design: species or system AsPC-1; Kinobeads competition pulldown in AsPC-1 lysate with LC-MS/MS label-free quantification; apparent Kd
Procedure: as §1

BTK = tested on: BTK; design: method as in Klaeger et al. (2017); settings: lysate 4 cell line mix (Colo205, K-562, MV-4-11, and SK-N-BE(2)), Kinobeads y, ref Klaeger et al. (2017); cited from earlier work
TGFBR1 = tested on: TGFBR1; design: method as in Klaeger et al. (2017); settings: lysate 4 cell line mix (Colo205, K-562, MV-4-11, and SK-N-BE(2)), Kinobeads y, ref Klaeger et al. (2017); cited from earlier work
ACVR1B = tested on: ACVR1B; design: method as in Klaeger et al. (2017); settings: lysate 4 cell line mix (Colo205, K-562, MV-4-11, and SK-N-BE(2)), Kinobeads y, ref Klaeger et al. (2017); cited from earlier work
SIK3 = tested on: SIK3; design: method as in Klaeger et al. (2017); settings: lysate 4 cell line mix (Colo205, K-562, MV-4-11, and SK-N-BE(2)), Kinobeads y, ref Klaeger et al. (2017); cited from earlier work

Sequence of CLK1 ; P49759-3;P49759;P49759-2 (P49759 whole entry): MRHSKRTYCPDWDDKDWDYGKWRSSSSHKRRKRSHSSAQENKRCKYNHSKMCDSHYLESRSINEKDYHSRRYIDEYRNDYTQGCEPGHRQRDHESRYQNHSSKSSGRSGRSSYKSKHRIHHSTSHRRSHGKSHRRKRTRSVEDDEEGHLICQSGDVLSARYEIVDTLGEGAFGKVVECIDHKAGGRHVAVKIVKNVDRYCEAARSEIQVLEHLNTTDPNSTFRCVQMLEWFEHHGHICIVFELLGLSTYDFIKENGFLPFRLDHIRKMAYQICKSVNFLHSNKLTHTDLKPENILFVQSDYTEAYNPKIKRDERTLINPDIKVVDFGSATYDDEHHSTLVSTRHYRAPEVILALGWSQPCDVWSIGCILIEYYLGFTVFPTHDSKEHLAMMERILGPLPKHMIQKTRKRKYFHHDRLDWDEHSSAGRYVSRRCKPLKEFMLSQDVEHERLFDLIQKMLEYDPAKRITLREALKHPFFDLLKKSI
Sequence of STK3 ; Q13188;Q13188-2 (Q13188 whole entry): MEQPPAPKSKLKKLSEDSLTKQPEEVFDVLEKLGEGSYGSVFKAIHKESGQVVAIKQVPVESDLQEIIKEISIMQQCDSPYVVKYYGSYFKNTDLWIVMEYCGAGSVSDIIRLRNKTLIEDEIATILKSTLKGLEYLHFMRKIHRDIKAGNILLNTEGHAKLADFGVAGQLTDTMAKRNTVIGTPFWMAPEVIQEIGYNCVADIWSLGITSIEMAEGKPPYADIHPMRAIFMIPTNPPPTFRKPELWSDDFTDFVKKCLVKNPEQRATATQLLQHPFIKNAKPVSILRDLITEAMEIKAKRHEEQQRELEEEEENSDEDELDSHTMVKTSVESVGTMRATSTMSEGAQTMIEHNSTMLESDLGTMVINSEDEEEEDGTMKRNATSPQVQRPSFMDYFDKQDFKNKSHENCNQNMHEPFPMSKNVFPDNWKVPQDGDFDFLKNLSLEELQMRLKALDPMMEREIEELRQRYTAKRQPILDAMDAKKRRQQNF
Sequence of CSNK2A2 ; P19784 (P19784 whole entry): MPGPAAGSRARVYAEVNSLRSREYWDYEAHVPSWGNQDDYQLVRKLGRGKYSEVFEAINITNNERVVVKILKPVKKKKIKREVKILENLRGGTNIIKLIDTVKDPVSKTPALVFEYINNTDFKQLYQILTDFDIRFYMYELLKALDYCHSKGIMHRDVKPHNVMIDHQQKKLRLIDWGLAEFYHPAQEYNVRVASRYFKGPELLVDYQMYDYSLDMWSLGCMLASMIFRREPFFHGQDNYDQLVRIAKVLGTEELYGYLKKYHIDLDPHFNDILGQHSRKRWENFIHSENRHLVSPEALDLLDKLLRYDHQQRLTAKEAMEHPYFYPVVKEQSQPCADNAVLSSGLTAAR
Sequence of CDC42BPA ; Q5VT25-5;Q5VT25-4;Q5VT25;Q5VT25-2;Q5VT25-6;Q5VT25-3 (Q5VT25 whole entry): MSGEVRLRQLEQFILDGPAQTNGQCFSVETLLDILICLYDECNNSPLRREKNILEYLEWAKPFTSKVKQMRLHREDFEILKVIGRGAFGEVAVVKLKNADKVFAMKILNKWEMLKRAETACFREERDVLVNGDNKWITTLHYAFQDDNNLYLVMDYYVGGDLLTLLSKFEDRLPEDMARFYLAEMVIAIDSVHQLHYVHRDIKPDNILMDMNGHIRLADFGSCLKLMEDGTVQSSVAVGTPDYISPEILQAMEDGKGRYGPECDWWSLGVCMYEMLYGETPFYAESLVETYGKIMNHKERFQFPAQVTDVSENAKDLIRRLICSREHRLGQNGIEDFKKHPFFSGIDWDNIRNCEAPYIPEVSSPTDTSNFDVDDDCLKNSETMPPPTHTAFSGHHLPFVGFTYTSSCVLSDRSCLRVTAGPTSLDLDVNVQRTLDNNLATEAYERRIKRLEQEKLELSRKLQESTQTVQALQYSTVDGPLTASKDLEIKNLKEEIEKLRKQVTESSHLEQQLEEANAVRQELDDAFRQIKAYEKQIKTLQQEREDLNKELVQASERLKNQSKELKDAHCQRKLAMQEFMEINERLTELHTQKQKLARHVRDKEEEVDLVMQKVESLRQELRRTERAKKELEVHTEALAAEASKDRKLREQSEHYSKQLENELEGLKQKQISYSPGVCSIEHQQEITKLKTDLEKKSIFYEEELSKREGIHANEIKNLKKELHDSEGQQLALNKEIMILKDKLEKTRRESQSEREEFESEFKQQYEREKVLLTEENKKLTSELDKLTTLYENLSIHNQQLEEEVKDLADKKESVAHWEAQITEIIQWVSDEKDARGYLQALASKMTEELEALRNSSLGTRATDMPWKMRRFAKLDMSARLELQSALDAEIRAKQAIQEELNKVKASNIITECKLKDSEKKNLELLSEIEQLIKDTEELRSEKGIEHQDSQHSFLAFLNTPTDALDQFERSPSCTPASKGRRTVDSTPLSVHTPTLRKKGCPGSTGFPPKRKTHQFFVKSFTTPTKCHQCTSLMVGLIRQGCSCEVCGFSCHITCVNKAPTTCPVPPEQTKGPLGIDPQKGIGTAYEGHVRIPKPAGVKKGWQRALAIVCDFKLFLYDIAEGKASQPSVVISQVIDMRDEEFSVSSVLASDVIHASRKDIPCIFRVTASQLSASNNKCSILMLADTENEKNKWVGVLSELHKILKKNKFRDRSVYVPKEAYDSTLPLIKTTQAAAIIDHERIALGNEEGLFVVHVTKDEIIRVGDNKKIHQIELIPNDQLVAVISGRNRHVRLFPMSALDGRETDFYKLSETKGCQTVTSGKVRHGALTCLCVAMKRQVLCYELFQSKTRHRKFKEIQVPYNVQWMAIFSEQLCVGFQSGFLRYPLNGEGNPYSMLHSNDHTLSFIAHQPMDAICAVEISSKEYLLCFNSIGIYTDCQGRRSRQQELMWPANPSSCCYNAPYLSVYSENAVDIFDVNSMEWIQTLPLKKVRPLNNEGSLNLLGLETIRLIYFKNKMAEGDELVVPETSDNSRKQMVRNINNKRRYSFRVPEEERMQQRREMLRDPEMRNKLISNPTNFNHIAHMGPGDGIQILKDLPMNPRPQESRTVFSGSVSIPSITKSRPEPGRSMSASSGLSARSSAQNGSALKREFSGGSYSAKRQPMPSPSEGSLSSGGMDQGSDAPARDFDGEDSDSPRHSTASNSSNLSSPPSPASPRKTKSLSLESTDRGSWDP
Sequence of FN3KRP ; Q9HA64 (Q9HA64 whole entry): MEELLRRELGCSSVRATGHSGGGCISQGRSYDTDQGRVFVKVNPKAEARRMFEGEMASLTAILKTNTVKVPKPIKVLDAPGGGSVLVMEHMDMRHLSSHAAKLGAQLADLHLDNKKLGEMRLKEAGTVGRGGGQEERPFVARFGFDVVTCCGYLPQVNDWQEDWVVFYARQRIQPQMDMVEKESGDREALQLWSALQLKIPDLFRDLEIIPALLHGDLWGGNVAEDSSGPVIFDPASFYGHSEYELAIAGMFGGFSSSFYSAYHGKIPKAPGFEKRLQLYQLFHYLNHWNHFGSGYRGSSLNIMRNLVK
Sequence of ADCK1 ; Q86TW2;Q86TW2-2;Q86TW2-3 (Q86TW2 whole entry): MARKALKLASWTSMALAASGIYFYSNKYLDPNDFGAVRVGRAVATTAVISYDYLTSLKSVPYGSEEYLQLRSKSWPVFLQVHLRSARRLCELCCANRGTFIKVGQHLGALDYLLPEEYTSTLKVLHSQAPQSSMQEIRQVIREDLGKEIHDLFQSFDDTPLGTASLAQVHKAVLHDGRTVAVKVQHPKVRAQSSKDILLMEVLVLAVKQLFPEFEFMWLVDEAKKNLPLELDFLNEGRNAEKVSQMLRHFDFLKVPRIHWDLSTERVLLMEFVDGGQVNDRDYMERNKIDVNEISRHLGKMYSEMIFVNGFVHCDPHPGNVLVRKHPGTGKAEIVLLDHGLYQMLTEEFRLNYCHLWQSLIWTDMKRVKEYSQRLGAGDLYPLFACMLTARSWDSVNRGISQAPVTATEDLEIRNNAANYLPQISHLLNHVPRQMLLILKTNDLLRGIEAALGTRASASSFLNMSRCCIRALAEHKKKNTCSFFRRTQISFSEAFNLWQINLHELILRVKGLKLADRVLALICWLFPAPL
Sequence of CLK2 ; P49760-3;P49760 (P49760 whole entry): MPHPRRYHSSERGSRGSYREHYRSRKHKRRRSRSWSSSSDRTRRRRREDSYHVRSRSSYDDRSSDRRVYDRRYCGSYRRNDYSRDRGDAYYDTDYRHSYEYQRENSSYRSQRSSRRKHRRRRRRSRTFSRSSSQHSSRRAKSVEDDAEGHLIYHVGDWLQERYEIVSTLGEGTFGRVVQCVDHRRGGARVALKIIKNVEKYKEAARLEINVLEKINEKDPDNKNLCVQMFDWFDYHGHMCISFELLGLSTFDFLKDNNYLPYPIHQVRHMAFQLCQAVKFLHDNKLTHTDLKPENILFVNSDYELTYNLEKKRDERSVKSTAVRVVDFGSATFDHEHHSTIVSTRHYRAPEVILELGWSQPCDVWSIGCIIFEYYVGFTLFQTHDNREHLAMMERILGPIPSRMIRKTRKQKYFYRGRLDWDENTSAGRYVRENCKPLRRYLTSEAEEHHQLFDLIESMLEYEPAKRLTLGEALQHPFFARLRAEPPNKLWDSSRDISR
Sequence of TP53RK ; Q96S44 (Q96S44 whole entry): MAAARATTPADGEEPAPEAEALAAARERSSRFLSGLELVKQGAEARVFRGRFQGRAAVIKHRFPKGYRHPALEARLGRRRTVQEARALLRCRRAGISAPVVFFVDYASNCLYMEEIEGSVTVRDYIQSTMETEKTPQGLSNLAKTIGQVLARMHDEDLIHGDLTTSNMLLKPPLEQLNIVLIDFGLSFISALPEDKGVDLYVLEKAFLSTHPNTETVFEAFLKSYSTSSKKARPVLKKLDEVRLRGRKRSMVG

Compound: CNCc1ccc(-c2cc(-c3nc(-c4ccc(S(=O)(=O)C(C)C)cc4)cnc3N)on2)cc1 [Berzosertib]
Kd (STK3 ; Q13188;Q13188-2): 70.2 nM
Kd (PIK3C3 ; Q8NEB9): 9.2 nM

Compound: COc1cc(N2CCC(N3CCN(C)CC3)CC2)ccc1Nc1ncc(Cl)c(Nc2ccccc2P(C)(C)=O)n1 [Brigatinib]
EC50 (MAP3K6): 844 nM
pKDapp (MAP3K6): 6.16
Kd (MAP3K6; read-out: KDapp): 697 nM
EC50 (AZI2): 1120 nM
pKDapp (AZI2): 6.10
Kd (AZI2; read-out: KDapp): 789 nM
Kd (BCR; read-out: KDapp): 504 nM
EC50 (BCR): 1050 nM
pKDapp (BCR): 6.30
Kd (EIF3J; read-out: KDapp): 434 nM
EC50 (EIF3J): 434 nM
pKDapp (EIF3J): 6.36

Kd (FN3KRP ; Q9HA64): 358 nM
Kd [1]: 70.9 nM
Kd [2]: 15.4 nM
Kd (CLK2 ; P49760-3;P49760): 303 nM
Kd [3]: 23.2 nM
Kd (CSNK2A2 ; P19784): 15.1 nM
Kd (TP53RK ; Q96S44): 113 nM
Compound: Nc1nn2cc(F)cnc2c1C(=O)Nc1cncc(F)c1N1CCC(C(=O)N2CCN(C3COC3)CC2)CC1 [Gartisertib]

Compound: C[C@]12O[C@H](C[C@]1(O)CO)n1c3ccccc3c3c4c(c5c6ccccc6n2c5c31)CNC4=O [Lestaurtinib]
EC50 (SIK3): 1040 nM
